Results published in patent publication US20080194466A1, “(5Z)-5-(6-Quinoxalinylmethylidene)-2-[(2,4,6-Trichlorophenyl)Amino]-1,3-Thiazol-4(5H)-One” (priority 2005, published 2008).
Structures can show the parent of a compound that is named as a salt.

Legend:
hYAK3 kinase enzyme = target: T1, hYAK3 kinase enzyme (Homo sapiens, UniProt O43781); assay: in vitro hYAK3 kinase enzyme inhibition; type: biochemical; settings: in vitro assays; compared with Compound B and Compound C
T1 sequence (O43781 1-588): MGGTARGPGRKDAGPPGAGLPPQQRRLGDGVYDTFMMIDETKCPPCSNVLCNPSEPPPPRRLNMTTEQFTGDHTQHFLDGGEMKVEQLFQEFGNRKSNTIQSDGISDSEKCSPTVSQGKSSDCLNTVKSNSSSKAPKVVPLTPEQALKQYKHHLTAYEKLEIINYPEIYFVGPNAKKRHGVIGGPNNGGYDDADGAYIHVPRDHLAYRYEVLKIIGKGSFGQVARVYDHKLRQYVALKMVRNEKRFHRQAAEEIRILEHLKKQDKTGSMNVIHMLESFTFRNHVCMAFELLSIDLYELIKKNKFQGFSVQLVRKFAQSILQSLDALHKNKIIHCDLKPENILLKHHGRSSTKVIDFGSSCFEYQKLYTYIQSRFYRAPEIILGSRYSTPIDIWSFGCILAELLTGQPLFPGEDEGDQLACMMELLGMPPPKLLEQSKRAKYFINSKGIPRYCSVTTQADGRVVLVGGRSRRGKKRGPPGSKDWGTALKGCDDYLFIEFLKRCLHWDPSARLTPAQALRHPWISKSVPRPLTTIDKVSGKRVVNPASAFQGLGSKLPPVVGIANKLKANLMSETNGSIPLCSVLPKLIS
Experimental: Compound A is tested for its ability to inhibit the hYAK3 kinase enzyme by known methods such as those described in International Application No. PCT/US2003/037658.

[1] = Oral bioavailability (blood exposure, DNAUC) in rats; type: in vivo, male Sprague-Dawley rats; settings: for Oral DNAUC rats (Sprague-Dawley): sodium salts, oral gavage, dose ~1-4 mg/kg, 50% PEG-400, 10% ethanol, 40% of 40% (w/v) aqueous Encapsin, blood, LC/MS/MS, 0-1440 min
Experimental: The sodium salt of Compound A was fed to male Sprague-Dawley rats by oral gavage in a formulation with 50% PEG-400, 10% ethanol, 40% of 40% (w/v) aqueous Encapsin in water at a dose of between 1 and 4 mg/kg (16 mL of dose solution per kg). Blood (120 microliters) was sampled at the following time intervals: 0, 20, 40, 60, 120, 180, 240, 360, 480, and 1440 min. The concentration of Compound A was quantified by LC/MS/Ms analysis of an aliquot (25 microliters blood+25 microliters water) of these samples and the overall blood exposure reported as the Dose-Normalised Area Under the Curve (DNAUC) from a concentration versus time plot and expressed in the units microgram hours per milliliter per […] per kilogram (ug.h/mL/mg/kg). The oral exposures of the sodium salt of Compound B and the sodium salt of Compound C were quantified by the same method.

Oral DNAUC rats (Sprague-Dawley) [1] [ug · h/mL/min/kg] | Structure (SMILES) | hYAK3 kinase enzyme inhibition activity (hYAK3 kinase enzyme) | bioavailability in vivo ([1]; compared with the most closely related compounds of PCT/US2003/037658)
– | O=C1NC(=Nc2c(Cl)cc(Cl)cc2Cl)S/C1=C\c1ccc2nccnc2c1 [Compound A, (5Z)-5-(6-quinoxalinylmethylidene)-2-[(2,4,6-trichlorophenyl)amino]-1,3-thiazol-4(5H)-one] | activity similar to Compound B (described herein) and Compound C | significantly greater bioavailability in vivo
26.11 | O=C1N=C(Nc2c(Cl)cc(Cl)cc2Cl)S/C1=C\c1ccc2nccnc2c1.[Na] [Compound A•Na, (5Z)-5-(6-quinoxalinylmethylidene)-2-[(2,4,6-trichlorophenyl)amino]-1,3-thiazol-4(5H)-one sodium salt] | – | –
0.49 | O=C1NC(=Nc2c(Cl)cccc2Cl)S/C1=C\c1ccc2ncccc2c1 [Compound B•Na, 2-(2,6-dichloro-phenylimino)-5-(quinolin-6-ylmethylene)-thiazolidin-4-one sodium salt, reference compound] | – | –
0.34 | O=C1NC(=Nc2ccccc2Cl)S/C1=C\c1ccc2nccnc2c1 [C•Na, 2-(2-chloro-phenylimino)-5-(quinoxalin-6-ylmethylene)-thiazolidin-4-one sodium salt, reference compound] | – | –
